According to patent publication US10280163B2 (BeiGene, Ltd., priority 2015, dated 2019):
Read-outs that look alike come from different tables or passages of the source.

Key:
Recombinant TDO = target: T1, Recombinant TDO (Homo sapiens, UniProt P48775); assay: TDO enzymatic assay; assay type: biochemical; details: Table 1, 5-substituted imidazo[1,5-a]pyridines; 100 nM TDO, 0.5 mM L-tryptophan; read-out: Enzyme IC50 (nM) TDO
T1 construct: His tag (C); made in house; host or cells: E. coli
Description: Recombinant TDO was overexpressed and purified from E. coli cells with a C-terminal His tag. TDO enzymatic assay was performed using the same methodology as IDO1 enzymatic assay except that 100 nM TDO and 0.5 mM L-tryptophan (Km concentration) were used in the TDO assay.

Recombinant IDO1 = target: T2, Recombinant IDO1 (Homo sapiens, UniProt P14902); assay: IDO1 enzymatic assay; assay type: biochemical; details: 50 nM IDO1, 1.3 mM D-tryptophan, read-out: Enzyme IC50 (nM) IDO1
T2 construct: His tag (N); made in house; host or cells: E. coli
Description: Recombinant IDO1 was overexpressed and purified from E. coli cells with an N-terminal His tag. IDO1 enzymatic assay was carried out using a methodology similar to described in the literature (J. Biol. Chem. (1980), 255, 1339-1345.). The reaction mixture contains 50 nM IDO1, 1.3 mM D-tryptophan, 5 mM L-ascorbic acid, 6.25 μM methylene Blue, 0.4 mg/mL catalase and compound (or DMSO) in a buffer containing 50 mM potassium phosphate pH 7.5 and 0.1% BSA. After incubation at 24° C. for 1.5 hours, absorbance of the reaction mixture was continuously read at 321 nm to monitor the formation of N′-formylkynurenine by a FULOstar OMEGA plate reader (BMG LABTECH) for 1 hour. The enzymatic activity was determined by measuring the slope of the linear absorbance increase as a function of time. The IC50s are calculated based on remaining enzyme activity in the presence of increasing concentrations of compounds.

[1] = target: T3, cellular IDO1 in HeLa cells (Homo sapiens, UniProt P14902); assay: HeLa cell-based IDO1 Kyn (kynurenine) production assay; details: IFN-γ 100 ng/mL, 48 hours
T3 construct: endogenous in cells; host or cells: HeLa cells (American Type Tissue Culture Collection), induced with human recombinant IFN-γ
Description: HeLa Cell-Based IDO1 Kyn (Kynurenine) Production Assay:
The inhibitory activity of IDO1 inhibitors is determined by using a colorimetric reaction to measure Kyn generated from L-Trp (L-Tryptophon) oxidation by cellular IDO1 in HeLa cells after induction of IDO1 by IFN-γ.
Hela cells were obtained from the American Type Tissue Culture Collection and recovered in 10% FBS-containing phenol red-free DMEM medium supplemented with 0.4 mM L-Trp. Cells were plated onto a 96-well plate (100 μl/well) at 8000 cells per well. Human recombinant IFN-γ (8901SC, CST) was added to cells (final concentration 100 ng/mL) to stimulate endogenous IDO1. Compounds at different concentrations diluted in dimethylsulfoxide (DMSO) were added simultaneously with IFN-γ. Cells were kept at 37° C. in a humidified incubator supplied with 5% CO2. After 48 hours of incubation, 100 μl supernatant from each well was removed to a new plate. The protein in the medium was precipitated with the addition of 8 μl 6N trichloroacetic acid. The plate was incubated at 60° C. for 45 min and then centrifugation at 2500 rpm for 10 min to remove sediments. 80 μl supernatants were carefully removed to a new clean plate and added with an equal volume of 2% 4-(Dimethylamino) benzaldehyde (D2004, sigma) dissolved in glacial acetic acid. The absorbance at 480 nm wavelength derived from Kyn was measured using a FULOstar OMEGA plate reader (BMG LABTECH). The IC50 for each compound was derived from fitting the dose-response data to the four-parameter logistic model by using Graphpad Prism software.

[2] = Table 1, 5-substituted imidazo[1,5-a]pyridines
[3] = Table 2, 8-substituted imidazo[1,5-a]pyridines

T3 sequence (P14902 whole entry): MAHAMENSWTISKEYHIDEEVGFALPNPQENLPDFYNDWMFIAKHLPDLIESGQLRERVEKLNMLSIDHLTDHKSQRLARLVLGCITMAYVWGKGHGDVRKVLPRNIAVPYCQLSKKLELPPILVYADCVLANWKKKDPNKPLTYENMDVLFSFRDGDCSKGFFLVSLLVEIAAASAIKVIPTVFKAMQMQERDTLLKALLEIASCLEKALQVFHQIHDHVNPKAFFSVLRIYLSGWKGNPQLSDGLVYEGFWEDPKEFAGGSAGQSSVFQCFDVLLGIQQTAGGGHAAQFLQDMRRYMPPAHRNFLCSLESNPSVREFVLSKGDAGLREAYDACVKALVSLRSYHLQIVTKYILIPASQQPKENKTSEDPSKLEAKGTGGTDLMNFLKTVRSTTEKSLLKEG
T2 sequence (P14902 whole entry): as above
T1 sequence (P48775 whole entry): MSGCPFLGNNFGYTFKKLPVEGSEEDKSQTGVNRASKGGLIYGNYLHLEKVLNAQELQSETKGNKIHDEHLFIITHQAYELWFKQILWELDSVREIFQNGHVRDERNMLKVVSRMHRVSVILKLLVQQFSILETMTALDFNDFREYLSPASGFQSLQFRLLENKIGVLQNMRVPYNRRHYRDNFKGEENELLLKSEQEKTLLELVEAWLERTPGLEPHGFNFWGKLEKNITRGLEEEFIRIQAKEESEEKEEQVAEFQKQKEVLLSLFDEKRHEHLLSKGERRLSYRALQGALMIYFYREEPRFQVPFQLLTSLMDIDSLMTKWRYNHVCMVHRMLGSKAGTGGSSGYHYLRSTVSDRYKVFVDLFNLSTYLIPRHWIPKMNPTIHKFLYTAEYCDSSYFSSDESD

IC50 (Recombinant TDO)	IC50 (Recombinant IDO1; [2])	EC50 [1, 2]	EC50 [1, 3]	IC50 (Recombinant IDO1; [3])	Compound
			> 10000 nM	6600 nM	OC(CC1CC1)c1cccn2cncc12 (centres unmarked) [Example B007, 2-cyclopropyl-1-(imidazo[1,5-a]pyridin-8-yl)ethan-1-ol]
			> 10000 nM	18000 nM	CC(O)(CC1CCCCC1)c1cccn2cncc12 (centres unmarked) [Example B009, 1-cyclohexyl-2-(imidazo[1,5-a]pyridin-8-yl)propan-2-ol]
			415 nM	85 nM	OC(c1c(C(F)(F)F)ccn2cncc12)C1CCCCC1 (centres unmarked) [Example B111, Cyclohexyl(7-(trifluoromethyl)imidazo[1,5-a]pyridin-8-yl)methanol]
			9340 nM	1300 nM	CC(C)(C)c1ccn2cncc2c1C(O)C1CCCCC1 (centres unmarked) [Example B113, (7-(tert-Butyl)imidazo[1,5-a]pyridin-8-yl)(cyclohexyl)methanol]
			3040 nM	630 nM	OC(c1c(C2CCC2)ccn2cncc12)C1CCCCC1 (centres unmarked) [Example B114, (7-Cyclobutylimidazo[1,5-a]pyridin-8-yl)(cyclohexyl)methanol]
			> 10000 nM	120 nM	C=CC(O)c1c(C2CC2)ccn2cncc12 (centres unmarked) [Example B115, 1-(7-Cyclopropylimidazo[1,5-a]pyridin-8-yl)prop-2-en-1-ol]
			> 10000 nM	790 nM	CC(C)c1ccn2cncc2c1C(O)C1CCC(O[Si](C)(C)C(C)(C)C)CC1 (centres unmarked) [Example B120, (4-((tert-Butyldimethylsilyl)oxy)cyclohexyl)(7-isopropylimidazo[1,5-a]pyridin-8-yl)methanol]
			116 nM	53 nM	OC(c1c(C2CC2)ccn2cncc12)C1CC2CCC1C2 (centres unmarked) [Example B122, bicyclo[2.2.1]heptan-2-yl(7-cyclopropylimidazo[1,5-a]pyridin-8-yl)methanol]
			33 nM	58 nM	O[C@H](c1c(C2CC2)ccn2cncc12)[C@H]1C[C@H]2CC[C@@H]1C2 [Example B122a, (S)-((1R,2S,4S)-bicyclo[2.2.1]heptan-2-yl)(7-cyclopropylimidazo[1,5-a]pyridin-8-yl)methanol]
			376 nM	440 nM	OC(c1c(C2CC2)ccn2cncc12)C1CC2CCC1CC2 (centres unmarked) [Example B124, Bicyclo[2.2.2]octan-2-yl(7-cyclopropylimidazo[1,5-a]pyridin-8-yl)methanol]
			> 10000 nM	1700 nM	CC(C)(C)OC(=O)NCC(=O)N1CCCC(C(O)c2c(C3CC3)ccn3cncc23)C1 (centres unmarked) [Example B131, tert-Butyl (2-(3-((7-cyclopropylimidazo[1,5-a]pyridin-8-yl)(hydroxy)methyl)piperidin-1-yl)-2-oxoethyl) carbamate]
			> 10000 nM	13000 nM	NCC(=O)N1CCCC(C(O)c2c(C3CC3)ccn3cncc23)C1 (centres unmarked) [Example B132, 2-Amino-1-(3-((7-cyclopropylimidazo[1,5-a]pyridin-8-yl)(hydroxy)methyl)piperidin-1-yl)ethan-1-one]
			3290 nM	2200 nM	CCOC(COCC1(C(O)c2c(C3CC3)ccn3cncc23)CCCCC1)OCC (centres unmarked) [Example B137, (7-Cyclopropylimidazo[1,5-a]pyridin-8-yl)(1-((2,2-diethoxyethoxy)methyl)cyclohexyl)methanol]
			147 nM	71 nM	OC(c1c(C2CC2)ccn2cncc12)C1CCC2CC2C1 (centres unmarked) [Example B140, bicyclo[4.1.0]heptan-3-yl(7-cyclopropylimidazo[1,5-a]pyridin-8-yl)methanol]
			1700 nM	45 nM	OC(c1c(C2CC2)ccn2cncc12)C1C=CCCC1 (centres unmarked) [Example B141, cyclohex-2-en-1-yl(7-cyclopropylimidazo[1,5-a]pyridin-8-yl)methanol]

Further lines, the molecule ahead of its results:

Compound	IC50 (Recombinant TDO)	IC50 (Recombinant IDO1; [2])	EC50 [1, 2]	EC50 [1, 3]	IC50 (Recombinant IDO1; [3])
OC(CC1CCCCC1)c1c(C2CC2)ccc2cncn12 (single isomer, unassigned) [Example A139a]	1800 nM	11 nM			
OC(CC1CCCCC1)c1c(C2CC2)ccc2cncn12 (single isomer, unassigned) [Example A139b]	13000 nM	4500 nM			
OC1CC2CC1CC2C(O)c1c(C2CC2)ccc2cncn12 (centres unmarked) [Example A165, 5-((6-cyclopropylimidazo[1,5-a]pyridin-5-yl)(hydroxy)methyl)bicyclo[2.2.1]heptan-2-ol]		430 nM	1200 nM		
OC(CCc1cccn2cncc12)C1CCCCC1 (centres unmarked) [Example B010, 1-Cyclohexyl-3-(imidazo[1,5-a]pyridin-8-yl)propan-1-ol]				> 10000 nM	14000 nM
OC(c1c(C2CC2)ccn2cncc12)C1CCOCC1 (centres unmarked) [Example B112, (7-Cyclopropylimidazo[1,5-a]pyridin-8-yl)(tetrahydro-2H-pyran-4-yl)methanol]				1680 nM	530 nM
OC(c1c(Cl)ccn2cncc12)C1CC=CCC1 (centres unmarked) [Example B116, (7-Chloroimidazo[1,5-a]pyridin-8-yl)(cyclohex-3-en-1-yl)methanol]				4580 nM	61 nM
OC(c1c(C2CC2)ccn2cncc12)C1C2CC3CC(C2)CC1C3 (centres unmarked) [Example B117, (Adamantan-2-yl)(7-cyclopropylimidazo[1,5-a]pyridin-8-yl)methanol]				401 nM	1100 nM
OC(CC12CC3CC(CC(C3)C1)C2)c1c(C2CC2)ccn2cncc12 (centres unmarked) [Example B118, 2-(Adamantan-1-yl)-1-(7-cyclopropylimidazo[1,5-a]pyridin-8-yl)ethan-1-ol]				179 nM	280 nM
OC(c1c(C2CC2)ccn2cncc12)C1CC2C=CC1CC2 (centres unmarked) [Example B123, Bicyclo[2.2.2]oct-5-en-2-yl(7-cyclopropylimidazo[1,5-a]pyridin-8-yl)methanol]				754 nM	260 nM
O=C(NC1CC1)c1cccc(C(O)c2c(C3CC3)ccn3cncc23)c1 (centres unmarked) [Example B125, N-cyclopropyl-3-((7-cyclopropylimidazo[1,5-a]pyridin-8-yl)(hydroxy)methyl)benzamide]				8500 nM	170 nM
O=C(OCc1ccccc1)N1CCCC(C(O)c2c(C3CC3)ccn3cncc23)C1 (centres unmarked) [Example B129, Benzyl-3-((7-cyclopropylimidazo[1,5-a]pyridin-8-yl)(hydroxy)methyl) piperidine-1-carboxylate]				> 10000 nM	310 nM
O=C(c1ccccc1)N1CCCC(C(O)c2c(C3CC3)ccn3cncc23)C1 (centres unmarked) [Example B134, (3-((7-Cyclopropylimidazo[1,5-a]pyridin-8-yl)(hydroxy)methyl)piperidin-1-yl)(phenyl) methanone]				> 10000 nM	2000 nM
OCC1(C(O)c2c(C3CC3)ccn3cncc23)CCCCC1 (centres unmarked) [Example B136, (7-Cyclopropylimidazo[1,5-a]pyridin-8-yl)(1-(hydroxymethyl)cyclohexyl)methanol]				286 nM	760 nM
O=C(O)C1CCCC(C(O)c2c(C3CC3)ccn3cncc23)C1 (centres unmarked) [Example B138, 3-((7-Cyclopropylimidazo[1,5-a]pyridin-8-yl)(hydroxy)methyl)cyclohexane-1-carboxylic acid]				> 10000 nM	1000 nM
OC(c1c(C2CC2)ccn2cncc12)C1CC2CC2C1 (centres unmarked) [Example B139, bicyclo[3.1.0]hexan-3-yl(7-cyclopropylimidazo[1,5-a]pyridin-8-yl)methanol]				199 nM	85 nM
OC1CC2CC1CC2C(O)c1c(C2CC2)ccn2cncc12 (centres unmarked) [Example B142, 5-((7-cyclopropylimidazo[1,5-a]pyridin-8-yl)(hydroxy)methyl)bicyclo[2.2.1]heptan-2-ol]				6320 nM	1300 nM
